According to US20210038607A1, “OXADIAZOLYLTHIOPHENE DERIVATIVES USEFUL AS HISTONE DEACETYLASE INHIBITORS” (Karus Therapeutics Limited, priority 2018, published 2021):

Key:
Human HDAC7 = target: T1, Human HDAC7 (Homo sapiens, UniProt Q8WUI4); assay: HDAC7 biochemical assay, class IIa-specific substrate; details: read-out: HDAC Isoform IC50 (nM) 7
T1 construct: (a.a. 518-end) with N-terminal GST tag; GST (N); host or cells: baculovirus expression system
T1 sequence (Q8WUI4 518-952 limits assumed): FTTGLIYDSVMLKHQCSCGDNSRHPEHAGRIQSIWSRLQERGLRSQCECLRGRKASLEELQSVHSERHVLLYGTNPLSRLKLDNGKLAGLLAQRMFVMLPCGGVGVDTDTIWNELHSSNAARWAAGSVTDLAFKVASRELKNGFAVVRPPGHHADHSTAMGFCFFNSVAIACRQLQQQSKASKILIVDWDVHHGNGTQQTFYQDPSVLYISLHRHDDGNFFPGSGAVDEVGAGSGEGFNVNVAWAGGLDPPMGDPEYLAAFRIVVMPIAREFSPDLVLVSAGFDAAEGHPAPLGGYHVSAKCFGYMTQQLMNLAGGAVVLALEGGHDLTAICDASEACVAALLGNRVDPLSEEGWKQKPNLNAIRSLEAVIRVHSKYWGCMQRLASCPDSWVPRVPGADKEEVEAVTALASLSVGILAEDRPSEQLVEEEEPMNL
In short: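 GST-tagged HDAC7 (a.a. 518-end, baculovirus-expressed) at 0.001 ng/ul with 50 μM Boc-Lys(trifluoroacetyl)-AMC substrate, 30 min at room temperature in pH 8.0 Tris buffer with BSA, 1% DMSO final. Developer then releases AMC; fluorescence read at 360/460 nm.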

Human HDAC8 = target: T2, Human HDAC8 (Homo sapiens, UniProt Q9BY41); assay: HDAC8 biochemical assay, AMC-labeled peptide substrate; details: read-out: HDAC Isoform IC50 (nM) 8
T2 construct: full length with C-terminal His tag, MW=42.6 kDa; His (C); host or cells: baculovirus expression system
T2 sequence (Q9BY41 1-377): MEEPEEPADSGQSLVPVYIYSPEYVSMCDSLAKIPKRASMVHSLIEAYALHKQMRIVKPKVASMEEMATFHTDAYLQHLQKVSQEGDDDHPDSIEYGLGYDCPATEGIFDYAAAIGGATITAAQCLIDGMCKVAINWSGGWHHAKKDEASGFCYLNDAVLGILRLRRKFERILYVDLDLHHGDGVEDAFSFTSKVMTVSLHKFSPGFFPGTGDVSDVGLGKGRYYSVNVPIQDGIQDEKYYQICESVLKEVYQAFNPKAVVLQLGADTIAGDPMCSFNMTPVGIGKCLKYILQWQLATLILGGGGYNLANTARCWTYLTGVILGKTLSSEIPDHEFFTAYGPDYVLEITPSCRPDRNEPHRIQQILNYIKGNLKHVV
In short: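 Full-length human HDAC8 with C-terminal His tag, baculovirus-expressed, 1 ng/ul, with 100 µM RHK(Ac)K(Ac)AMC substrate in Tris-HCl pH8.0 buffer with BSA, 1% DMSO. Incubated 2 h at 30° C, then developer added to cleave deacetylated substrate; fluorescence read at 360/460 Ex/Em.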

Human HDAC11 = target: T3, Human HDAC11 (Homo sapiens, UniProt Q96DB2); assay: HDAC11 biochemical assay, class IIa-specific substrate; details: read-out: HDAC Isoform IC50 (nM) 11
T3 construct: Human HDAC11 (full length); His (N); host or cells: baculovirus expression system
T3 sequence (Q96DB2 1-347): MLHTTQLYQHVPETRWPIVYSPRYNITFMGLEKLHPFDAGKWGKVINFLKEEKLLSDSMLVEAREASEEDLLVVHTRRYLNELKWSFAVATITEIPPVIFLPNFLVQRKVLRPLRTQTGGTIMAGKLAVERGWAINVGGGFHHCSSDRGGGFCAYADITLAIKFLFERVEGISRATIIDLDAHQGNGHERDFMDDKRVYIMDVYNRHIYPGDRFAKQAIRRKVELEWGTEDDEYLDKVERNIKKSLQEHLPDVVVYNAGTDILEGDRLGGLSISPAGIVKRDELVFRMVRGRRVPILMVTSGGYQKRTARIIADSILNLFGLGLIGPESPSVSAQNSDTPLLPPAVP
In short: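 Full-length N-His human HDAC11 from baculovirus, 5 ng/μl, incubated with 50 μM Boc-Lys(trifluoroacetyl)-AMC for 30 min at 30 °C. Buffer: 50 mM Tris-HCl pH 8.0, 137 mM NaCl, 2.7 mM KCl, 1 mM MgCl2, 1 mg/mL BSA, 1% DMSO. Developer releases AMC; fluorescence read at 360/460 nm.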

Row | Structure (SMILES) | IC50 (Human HDAC7) | IC50 (Human HDAC8) | IC50 (Human HDAC11)
1 | O=C(c1cnnc(N(Cc2ccc(-c3noc(C(F)(F)F)n3)s2)c2cnccn2)c1)N1C2CCC1COC2 [Example GB, 5-{3-Oxa-8-azabicyclo[3.2.1]octane-8-carbonyl}-N-(pyrazin-2-yl)-N-({5-[5-(trifluoromethyl)-1,2,4-oxadiazol-3-yl]thiophen-2-yl}methyl)pyridazin-3-amine] | ≤ 10000 nM | ≤ 10000 nM | > 10000 nM
2 | C[C@H]1CCCN1C(=O)c1cnnc(N(Cc2ccc(-c3noc(C(F)(F)F)n3)s2)c2cnccn2)c1 [Example GY, 5-[(2S)-2-Methylpyrrolidine-1-carbonyl]-N-(pyrazin-2-yl)-N-({5-[5-(trifluoromethyl)-1,2,4-oxadiazol-3-yl]thiophen-2-yl}methyl)pyridazin-3-amine] | ≤ 10000 nM | ≤ 10000 nM | > 10000 nM
3 | O=C(c1cnnc(N(Cc2ccc(-c3noc(C(F)(F)F)n3)s2)c2cnccn2)c1)N1CCCC1 [Example EA, N-(Pyrazin-2-yl)-5-(pyrrolidine-1-carbonyl)-N-({5-[5-(trifluoromethyl)-1,2,4-oxadiazol-3-yl]thiophen-2-yl}methyl)pyridazin-3-amine] | ≤ 10000 nM | ≤ 10000 nM | > 10000 nM
4 | CC1(c2cnnc(N(Cc3ccc(-c4noc(C(F)(F)F)n4)s3)c3cnccn3)c2)COC1 [Example GT, 5-(3-Methyloxetan-3-yl)-N-(pyrazin-2-yl)-N-({5-[5-(trifluoromethyl)-1,2,4-oxadiazol-3-yl]thiophen-2-yl}methyl)pyridazin-3-amine] | ≤ 10000 nM | ≤ 10000 nM | > 10000 nM
5 | [O-][S+]1CCN(Cc2ccc(N(Cc3ccc(-c4noc(C(F)(F)F)n4)s3)c3cnccn3)nn2)CC1 [Example FO, 4-({6-[(Pyrazin-2-yl)({5-[5-(trifluoromethyl)-1,2,4-oxadiazol-3-yl]thiophen-2-yl}methyl)amino]pyridazin-3-yl}methyl)-1lambda4-thiomorpholin-1-one] | ≤ 1000 nM | ≤ 10000 nM | > 10000 nM
6 | O=C(c1cnnc(N(Cc2ccc(-c3noc(C(F)(F)F)n3)s2)c2cnccn2)c1)N1C[C@@H]2C[C@H]1CO2 [Example FV, 5-[(1S,4S)-2-Oxa-5-azabicyclo[2.2.1]heptane-5-carbonyl]-N-(pyrazin-2-yl)-N-({5-[5-(trifluoromethyl)-1,2,4-oxadiazol-3-yl]thiophen-2-yl}methyl)pyridazin-3-amine] | ≤ 10000 nM | ≤ 10000 nM | > 10000 nM
7 | COC1(C(F)(F)F)CN(C(=O)c2cnnc(N(Cc3ccc(-c4noc(C(F)(F)F)n4)s3)c3cnccn3)c2)C1 [Example GL, 5-[3-Methoxy-3-(trifluoromethyl)azetidine-1-carbonyl]-N-(pyrazin-2-yl)-N-({5-[5-(trifluoromethyl)-1,2,4-oxadiazol-3-yl]thiophen-2-yl}methyl)pyridazin-3-amine] | ≤ 10000 nM | ≤ 10000 nM | > 10000 nM
8 | O=C(c1cnnc(N(Cc2ccc(-c3noc(C(F)(F)F)n3)s2)c2cnccn2)c1)N1CC(F)(F)C1 [Example FT, 5-(3,3-Difluoroazetidine-1-carbonyl)-N-(pyrazin-2-yl)-N-({5-[5-(trifluoromethyl)-1,2,4-oxadiazol-3-yl]thiophen-2-yl}methyl)pyridazin-3-amine] | ≤ 10000 nM | ≤ 10000 nM | > 10000 nM

The next lines start with the values.

Row | IC50 (Human HDAC7) | IC50 (Human HDAC8) | IC50 (Human HDAC11) | Structure (SMILES)
9 | ≤ 1000 nM | ≤ 10000 nM | > 10000 nM | O=C(c1cnnc(N(Cc2ccc(-c3noc(C(F)(F)F)n3)s2)c2cnccn2)c1)N1CCOCC1 [Example EB, 5-(Morpholine-4-carbonyl)-N-(pyrazin-2-yl)-N-({5-[5-(trifluoromethyl)-1,2,4-oxadiazol-3-yl]thiophen-2-yl}methyl)pyridazin-3-amine]
10 | ≤ 10000 nM | ≤ 10000 nM | > 10000 nM | FC(F)(F)c1cncc(N(Cc2ccc(-c3noc(C(F)(F)F)n3)s2)c2cnccn2)n1 [Example BR, N-(Pyrazin-2-yl)-6-(trifluoromethyl)-N-({5-[5-(trifluoromethyl)-1,2,4-oxadiazol-3-yl]thiophen-2-yl}methyl)pyrazin-2-amine]
11 | ≤ 10000 nM | ≤ 10000 nM | > 10000 nM | COc1nccnc1N(Cc1ccc(-c2noc(C(F)(F)F)n2)s1)c1cnccn1 [Example BF, 3-Methoxy-N-(pyrazin-2-yl)-N-({5-[5-(trifluoromethyl)-1,2,4-oxadiazol-3-yl]thiophen-2-yl}methyl)pyrazin-2-amine]
12 | ≤ 10000 nM | ≤ 10000 nM | > 10000 nM | O=C(c1cnnc(N(Cc2ccc(-c3noc(C(F)(F)F)n3)s2)c2cnccn2)c1)N1CC[S+]([O-])CC1 [Example FU, 4-{6-[(Pyrazin-2-yl)({5-[5-(trifluoromethyl)-1,2,4-oxadiazol-3-yl]thiophen-2-yl}methyl)amino]pyridazine-4-carbonyl}-1lambda4-thiomorpholin-1-one]
13 | ≤ 1000 nM | ≤ 10000 nM | > 10000 nM | FC(F)c1cnnc(N(Cc2ccc(-c3noc(C(F)(F)F)n3)s2)c2cnccn2)c1 [Example GV, 5-(Difluoromethyl)-N-(pyrazin-2-yl)-N-({5-[5-(trifluoromethyl)-1,2,4-oxadiazol-3-yl]thiophen-2-yl}methyl)pyridazin-3-amine]
14 | ≤ 500 nM | ≤ 10000 nM | > 10000 nM | O=C(c1cncc(N(Cc2ccc(-c3noc(C(F)(F)F)n3)s2)c2cnccn2)c1)N1CCOCC1 [Example GR, N-[5-(Morpholine-4-carbonyl)pyridin-3-yl]-N-({5-[5-(trifluoromethyl)-1,2,4-oxadiazol-3-yl]thiophen-2-yl}methyl)pyrazin-2-amine]
15 | ≤ 500 nM | ≤ 10000 nM | > 10000 nM | O=C(c1ccc(N(Cc2ccc(-c3noc(C(F)(F)F)n3)s2)c2cnccn2)nn1)N1C[C@@H]2C[C@H]1CO2 [Example FE, 6-[(1S,4S)-2-Oxa-5-azabicyclo[2.2.1]heptane-5-carbonyl]-N-(pyrazin-2-yl)-N-({5-[5-(trifluoromethyl)-1,2,4-oxadiazol-3-yl]thiophen-2-yl}methyl)pyridazin-3-amine]
16 | ≤ 500 nM | ≤ 10000 nM | > 10000 nM | Nc1cnnc(N(Cc2ccc(-c3noc(C(F)(F)F)n3)s2)c2cnccn2)c1 [Example FL, N3-(Pyrazin-2-yl)-N3-({5-[5-(trifluoromethyl)-1,2,4-oxadiazol-3-yl]thiophen-2-yl}methyl)pyridazine-3,5-diamine]
17 | ≤ 500 nM | ≤ 10000 nM | > 10000 nM | O=C(c1ccc(N(Cc2ccc(-c3noc(C(F)(F)F)n3)s2)c2cnccn2)nn1)N1CCCCC1 [Example FG, 6-(Piperidine-1-carbonyl)-N-(pyrazin-2-yl)-N-({5-[5-(trifluoromethyl)-1,2,4-oxadiazol-3-yl]thiophen-2-yl}methyl)pyridazin-3-amine]
18 | ≤ 1000 nM | ≤ 10000 nM | > 10000 nM | O=C(O)c1cnnc(N(Cc2sc(-c3noc(C(F)(F)F)n3)cc2F)c2cnccn2)c1 [Example FA, 6-[({3-fluoro-5-[5-(trifluoromethyl)-1,2,4-oxadiazol-3-yl]thiophen-2-yl}methyl)(pyrazin-2-yl)amino]pyridazine-4-carboxylic acid]
